These results are taken from patent publication US12655125B2 (SIRONAX LTD., priority 2020, dated 2026).

pEC50: −log10 of the molar value. Like-named read-outs stand apart in the source and are kept apart here.

The assay deals with HT-29 cells. Nature of the assay: HT29 Cells 0FBS Assay In Vitro (TNF-α/SMAC mimetic/zVAD-FMK induced necroptosis, CellTiter-Glo cell viability). Type of assay: cell-based. To be noted: Homo sapiens, HT-29 cells, FBS free medium, TNF-α (10 ng/ml), SMAC mimetic (6 uM), zVAD-FMK (10 μM), 20 hours, geometric mean EC50. The gist of the method: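 Viability was measured by ATP luminescence (CellTiter-Glo) after 20 h at 37° C of compound exposure in 10-point, 1:3 dilutions. Necroptosis in FBS-free HT-29 cultures was driven by a TNF-α (10 ng/ml), SMAC mimetic (6 μM) and zVAD-FMK (10 μM) cocktail. EC50 values are geometric means from duplicate curves.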

The mark [1] stands for this setting: read-out: Cell activity (EC50) of Compounds 1-116.
The mark [2] stands for this setting: read-out: Cell activity (EC50) of Compounds 117-281.

For `Cn1ncc(NCC(=O)N2CCOCC2)c1-c1cc(OC2CN(C(=O)N3N=CC[C@H]3c3cc(F)cc(F)c3)C2)c(F)cn1` [compound 62, (S)-2-((5-(4-((1-(5-(3,5-difluorophenyl)-4,5-dihydro-1H-pyrazole-1-carbonyl)azetidin-3-yl)oxy)-5-fluoropyridin-2-yl)-1-methyl-1H-pyrazol-4-yl)amino)-1-morpholinoethan-1-one], the negative logarithm of the EC50 (pEC50) under setting [1] is 7.00 to 10.00.

Turning to `Cn1nccc1-c1ncc(F)c(OC2CN(C(=O)N3N=CC[C@H]3c3cc(F)cc(F)c3)C2)n1` [compound 2, (S)-(5-(3,5-difluorophenyl)-4,5-dihydro-1H-pyrazol-1-yl)(3-((5-fluoro-2-(1-methyl-1H-pyrazol-5-yl)pyrimidin-4-yl)oxy)azetidin-1-yl)methanone], under setting [1], the pEC50 was 7.00 to 10.00.

For `Cc1nn(CC2CC2)c(C)c1-c1ncc(F)c(OC2CN(C(=O)N3N=CC[C@H]3c3cc(F)cc(F)c3)C2)n1` [compound 158, (S)-(3-((2-(1-(cyclopropylmethyl)-3,5-dimethyl-1H-pyrazol-4-yl)-5-fluoropyrimidin-4-yl)oxy)azetidin-1-yl)(5-(3,5-difluorophenyl)-4,5-dihydro-1H-pyrazol-1-yl)methanone], the pEC50 under setting [2] was 7.00 to 10.00.

For the compound `Cc1nn(CC(N)=O)c(C)c1-c1ncc(F)c(OC2CN(C(=O)N3N=CC[C@H]3c3cc(F)cc(F)c3)C2)n1` [compound 99, (S)-2-(4-(4-((1-(5-(3,5-difluorophenyl)-4,5-dihydro-1H-pyrazole-1-carbonyl)azetidin-3-yl)oxy)-5-fluoropyrimidin-2-yl)-3,5-dimethyl-1H-pyrazol-1-yl)acetamide], the pEC50 under setting [1] was 7.00 to 10.00.

As for `Cc1cnn(C)c1-c1ncc(F)c(OC2CN(C(=O)N3N=CC[C@H]3c3cc(F)cc(F)c3)C2)n1` [compound 42, (S)-(5-(3,5-difluorophenyl)-4,5-dihydro-1H-pyrazol-1-yl)(3-((2-(1,4-dimethyl-1H-pyrazol-5-yl)-5-fluoropyrimidin-4-yl)oxy)azetidin-1-yl)methanone], the pEC50 under setting [1] is 7.00 to 10.00.

For the compound `Cn1ncc(C#N)c1-c1ccc(F)c(OC2CN(C(=O)N3N=CCC3c3cc(F)cc(F)c3)C2)n1` (stereo not drawn) [compound 111, 5-(6-((1-(5-(3,5-difluorophenyl)-4,5-dihydro-1H-pyrazole-1-carbonyl)azetidin-3-yl)oxy)-5-fluoropyridin-2-yl)-1-methyl-11H-pyrazole-4-carbonitrile], the pEC50 under setting [1] was 7.00 to 10.00.

For `Cc1c(-c2cc(OC3CN(C(=O)N4N=CC[C@H]4c4cc(F)cc(F)c4)C3)c(F)cn2)c(CO)nn1CC1COC1` [compound 169, (S)-(5-(3,5-difluorophenyl)-4,5-dihydro-1H-pyrazol-1-yl)(3-((5-fluoro-2-(3-(hydroxymethyl)-5-methyl-1-(oxetan-3-ylmethyl)-1H-pyrazol-4-yl)pyridin-4-yl)oxy)azetidin-1-yl)methanone], under setting [2], the pEC50 was 5.00 to 6.00.

On to `Cc1nnc(-c2ccc(F)c(OC3CN(C(=O)N4N=CCC4c4cc(F)cc(F)c4)C3)n2)o1` (stereo not drawn) [compound 27, (5-(3,5-difluorophenyl)-4,5-dihydro-1H-pyrazol-1-yl)(3-((3-fluoro-6-(5-methyl-1,3,4-oxadiazol-2-yl)pyridin-2-yl)oxy)azetidin-1-yl)methanone], for which the pEC50 under setting [1] was 6.00 to 7.00.

Turning to `Cc1c(-c2cc(OC3CN(C(=O)N4N=CC[C@H]4c4cc(F)cc(F)c4)C3)c(F)cn2)nn(C)c1C(N)=O` [compound 229, (S)-3-(4-((1-(5-(3,5-difluorophenyl)-4,5-dihydro-1H-pyrazole-1-carbonyl)azetidin-3-yl)oxy)-5-fluoropyridin-2-yl)-1,4-dimethyl-1H-pyrazole-5-carboxamide], the pEC50 under setting [2] was 7.00 to 10.00.

Consider `NC(=O)c1cccn1-c1ncc(F)c(OC2CN(C(=O)N3N=CC[C@H]3c3cc(F)cc(F)c3)C2)n1` [compound 107, (S)-1-(4-((1-(5-(3,5-difluorophenyl)-4,5-dihydro-1H-pyrazole-1-carbonyl)azetidin-3-yl)oxy)-5-fluoropyrimidin-2-yl)-1H-pyrrole-2-carboxamide], for which, under setting [1], the pEC50 was 7.00 to 10.00.

Regarding `CN(C)C(=O)c1cnn(C)c1-c1cc(OC2CN(C(=O)N3N=CC[C@H]3c3cc(F)cc(F)c3)C2)c(F)cn1` [compound 68, (S)-5-(4-((1-(5-(3,5-difluorophenyl)-4,5-dihydro-1H-pyrazole-1-carbonyl)azetidin-3-yl)oxy)-5-fluoropyridin-2-yl)-N,N,1-trimethyl-1H-pyrazole-4-carboxamide], the pEC50 under setting [1] was 5.00 to 6.00.

Turning to `Cc1nn(-c2cc(OC3CN(C(=O)N4N=CC[C@H]4c4cc(F)cc(F)c4)C3)c(F)cn2)c(C)c1C(=O)NC1COC1` [compound 217, (S)-1-(4-((1-(5-(3,5-difluorophenyl)-4,5-dihydro-1H-pyrazole-1-carbonyl)azetidin-3-yl)oxy)-5-fluoropyridin-2-yl)-3,5-dimethyl-N-(oxetan-3-yl)-1H-pyrazole-4-carboxamide], under setting [2], the pEC50 was 7.00 to 10.00.

Take `Cc1nc(CO)sc1-c1cc(OC2CN(C(=O)N3N=CC[C@H]3c3cc(F)cc(F)c3)C2)c(F)cn1` [compound 180, (S)-(5-(3,5-difluorophenyl)-4,5-dihydro-1H-pyrazol-1-yl)(3-((5-fluoro-2-(2-(hydroxymethyl)-4-methylthiazol-5-yl)pyridin-4-yl)oxy)azetidin-1-yl)methanone]: the pEC50 under setting [2] was 7.00 to 10.00.

For the compound `COCCn1cc(-c2cc(OC3CN(C(=O)N4N=CC[C@H]4c4cc(F)cc(F)c4)C3)c(F)cn2)c(C)n1` [compound 86, (S)-(5-(3,5-difluorophenyl)-4,5-dihydro-1H-pyrazol-1-yl)(3-((5-fluoro-2-(1-(2-methoxyethyl)-3-methyl-1H-pyrazol-4-yl)pyridin-4-yl)oxy)azetidin-1-yl)methanone], the pEC50 under setting [1] was 7.00 to 10.00.

For the compound `Cn1cc(-c2cc(OC3CN(C(=O)N4N=CC[C@H]4c4cc(F)cc(F)c4)C3)c(F)cn2)nn1` [compound 32, (S)-(5-(3,5-difluorophenyl)-4,5-dihydro-1H-pyrazol-1-yl)(3-((5-fluoro-2-(1-methyl-1H-1,2,3-triazol-4-yl)pyridin-4-yl)oxy)azetidin-1-yl)methanone], the pEC50 under setting [1] was 7.00 to 10.00.

On to `Cc1nn(C2CNC2)c(C)c1-c1cc(OC2CN(C(=O)N3N=CC[C@H]3c3cc(F)cc(F)c3)C2)c(F)cn1` [compound 131, (S)-(3-((2-(1-(azetidin-3-yl)-3,5-dimethyl-11H-pyrazol-4-yl)-5-fluoropyridin-4-yl)oxy)azetidin-1-yl)(5-(3,5-difluorophenyl)-4,5-dihydro-1H-pyrazol-1-yl)methanone], for which, under setting [2], the pEC50 is 7.00 to 10.00.

Turning to `NC(=O)Cn1ccc(-c2ncc(F)c(OC3CN(C(=O)N4N=CC[C@H]4c4cc(F)cc(F)c4)C3)n2)n1` [compound 89, (S)-2-(3-(4-((1-(5-(3,5-difluorophenyl)-4,5-dihydro-1H-pyrazole-1-carbonyl)azetidin-3-yl)oxy)-5-fluoropyrimidin-2-yl)-1H-pyrazol-1-yl)acetamide], the pEC50 under setting [1] was 6.00 to 7.00.

For `Cc1c(C(N)=O)cnn1-c1cc(OC2CN(C(=O)N3N=CC[C@H]3c3cc(F)cc(F)c3)C2)c(F)cn1` [compound 273, (S)-1-(4-((1-(5-(3,5-difluorophenyl)-4,5-dihydro-1H-pyrazole-1-carbonyl)azetidin-3-yl)oxy)-5-fluoropyridin-2-yl)-5-methyl-1H-pyrazole-4-carboxamide], the pEC50 under setting [2] was 7.00 to 10.00.

Take `Cc1ncsc1-c1ncc(F)c(OC2CN(C(=O)N3N=CC[C@H]3c3cc(F)cc(F)c3)C2)n1` [compound 9, (S)-(5-(3,5-difluorophenyl)-4,5-dihydro-1H-pyrazol-1-yl)(3-((5-fluoro-2-(4-methylthiazol-5-yl)pyrimidin-4-yl)oxy)azetidin-1-yl)methanone]: the pEC50 under setting [1] was 7.00 to 10.00.

`Cc1nn(-c2cc(OC3CN(C(=O)N4N=CC[C@H]4c4cc(F)cc(F)c4)C3)c(F)cn2)c(C)c1CN(C)C` [compound 269, (S)-(5-(3,5-difluorophenyl)-4,5-dihydro-1H-pyrazol-1-yl)(3-((2-(4-((dimethylamino)methyl)-3,5-dimethyl-1H-pyrazol-1-yl)-5-fluoropyridin-4-yl)oxy)azetidin-1-yl)methanone]: under setting [2], the pEC50 is 7.00 to 10.00.

Take `Cc1cnc(C)n1-c1cc(OC2CN(C(=O)N3N=CC[C@H]3c3cc(F)cc(F)c3)C2)c(F)cn1` [compound 182, (S)-(5-(3,5-difluorophenyl)-4,5-dihydro-1H-pyrazol-1-yl)(3-((2-(2,5-dimethyl-1H-imidazol-1-yl)-5-fluoropyridin-4-yl)oxy)azetidin-1-yl)methanone]: under setting [2], the pEC50 is 7.00 to 10.00.

Regarding `Cn1nc(CO)nc1-c1cc(OC2CN(C(=O)N3N=CC[C@H]3c3cc(F)cc(F)c3)C2)c(F)cn1` [compound 202, (S)-(5-(3,5-difluorophenyl)-4,5-dihydro-1H-pyrazol-1-yl)(3-((5-fluoro-2-(3-(hydroxymethyl)-1-methyl-1H-1,2,4-triazol-5-yl)pyridin-4-yl)oxy)azetidin-1-yl)methanone], under setting [2], the pEC50 is 7.00 to 10.00.

As to `Cn1ncc(C(N)=O)c1-c1cc(OC2CN(C(=O)N3N=CC[C@H]3c3cc(F)cc(F)c3)C2)c(F)cn1` [compound 66, (S)-5-(4-((1-(5-(3,5-difluorophenyl)-4,5-dihydro-1H-pyrazole-1-carbonyl)azetidin-3-yl)oxy)-5-fluoropyridin-2-yl)-1-methyl-1H-pyrazole-4-carboxamide], the pEC50 under setting [1] was 7.00 to 10.00.

As for `Cc1cnn(C)c1-c1cc(OC2CN(C(=O)N3N=CC[C@H]3c3cc(F)cc(F)c3)C2)c(F)cn1` [compound 43, (S)-(5-(3,5-difluorophenyl)-4,5-dihydro-1H-pyrazol-1-yl)(3-((2-(1,4-dimethyl-1H-pyrazol-5-yl)-5-fluoropyridin-4-yl)oxy)azetidin-1-yl)methanone], under setting [1], the pEC50 is 7.00 to 10.00.

Usually pEC50 stands for the negative decadic logarithm of the EC50, by convention in mol/L.
